Results as given in patent publication US20100216779A1 (GLAXOSMITHKLINE LLC, priority 2007, published 2010).

Legend:
Assay type in all cases: cell-based
[1] = molecular target: T1, human IGF-1R (NIH-3T3 cells over expressing human IGF-1R) (Homo sapiens, UniProt P08069); experiment: IGF-1R cellular autophosphorylation (DELFIA); details: IGF-1 stimulated
T1 construct: expressed in transfected cells; host or cells: NIH-3T3 (mouse fibroblasts)
Outline: (§1)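 Autophosphorylation of IGF-1R or IR is measured in NIH-3T3 lines overexpressing each human receptor after 2 h compound pretreatment and a 15 min ligand challenge (IGF-1 30 ng/mL; insulin 3 ug/mL). Fluorescence is normalised to 100% stimulation.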

COLO205 (colon) = experiment: Inhibition of cell proliferation, CellTiter-Glo, COLO205; details: Homo sapiens, COLO 205, 72 h
Outline: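 Exponentially growing COLO205 cells in medium with 10% FBS were plated below 2000 cells/well at 37 °C, 5% CO2. Untreated wells served as controls.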

[2] = molecular target: T2, IR (NIH-3T3 cells over expressing human IGF-1R or IR) (Homo sapiens, UniProt P06213); experiment: IR cellular autophosphorylation (DELFIA); details: NIH-3T3 cells over expressing IR, insulin stimulated
T2 construct: expressed in transfected cells; host or cells: NIH-3T3 (mouse fibroblasts)
Outline: as §1

[3] = system: NCI-H929 (multiple myeloma); experiment: Inhibition of cell proliferation, CellTiter-Glo, NCI-H929; details: Homo sapiens, 72 h
Outline: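 Cells were grown in medium with 10% FBS at 37° C, 5% CO2. Cell number was read as CellTiter-Glo luminescence (cellular ATP), with untreated wells as control.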

T1 sequence (P08069 31-1367): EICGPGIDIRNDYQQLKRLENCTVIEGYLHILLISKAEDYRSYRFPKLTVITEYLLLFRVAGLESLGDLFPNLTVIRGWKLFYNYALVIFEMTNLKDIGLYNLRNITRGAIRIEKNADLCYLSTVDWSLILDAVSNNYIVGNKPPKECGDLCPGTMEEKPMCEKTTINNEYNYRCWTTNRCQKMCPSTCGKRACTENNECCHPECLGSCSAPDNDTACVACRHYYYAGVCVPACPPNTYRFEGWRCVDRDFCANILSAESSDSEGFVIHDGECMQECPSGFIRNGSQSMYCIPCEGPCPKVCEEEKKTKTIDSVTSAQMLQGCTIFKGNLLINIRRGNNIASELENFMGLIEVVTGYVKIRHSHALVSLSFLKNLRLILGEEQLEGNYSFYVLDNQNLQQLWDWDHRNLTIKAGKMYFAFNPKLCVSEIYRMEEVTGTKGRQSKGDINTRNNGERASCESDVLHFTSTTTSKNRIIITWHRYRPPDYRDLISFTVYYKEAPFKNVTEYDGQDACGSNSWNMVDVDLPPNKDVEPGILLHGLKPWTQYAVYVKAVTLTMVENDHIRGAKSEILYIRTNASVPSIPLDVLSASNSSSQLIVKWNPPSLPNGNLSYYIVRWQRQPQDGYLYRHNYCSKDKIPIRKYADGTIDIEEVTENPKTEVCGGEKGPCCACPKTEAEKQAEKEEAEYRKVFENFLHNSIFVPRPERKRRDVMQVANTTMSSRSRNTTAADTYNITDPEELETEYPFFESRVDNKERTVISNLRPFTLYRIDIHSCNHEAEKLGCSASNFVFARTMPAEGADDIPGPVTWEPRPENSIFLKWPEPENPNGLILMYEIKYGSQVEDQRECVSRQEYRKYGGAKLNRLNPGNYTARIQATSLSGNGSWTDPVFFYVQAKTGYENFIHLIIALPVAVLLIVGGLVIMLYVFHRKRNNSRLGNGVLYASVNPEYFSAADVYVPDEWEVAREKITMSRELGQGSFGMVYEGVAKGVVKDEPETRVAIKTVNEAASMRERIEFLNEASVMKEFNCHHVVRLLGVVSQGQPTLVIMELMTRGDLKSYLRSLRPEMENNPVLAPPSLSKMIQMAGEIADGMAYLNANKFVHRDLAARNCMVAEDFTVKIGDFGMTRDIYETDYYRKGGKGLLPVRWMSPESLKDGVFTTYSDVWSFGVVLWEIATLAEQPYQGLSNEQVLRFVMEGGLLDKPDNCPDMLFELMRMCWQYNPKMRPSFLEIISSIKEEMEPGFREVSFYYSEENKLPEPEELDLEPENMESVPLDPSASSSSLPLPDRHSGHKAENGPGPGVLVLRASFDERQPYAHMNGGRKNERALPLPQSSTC
T2 sequence (P06213 28-1382): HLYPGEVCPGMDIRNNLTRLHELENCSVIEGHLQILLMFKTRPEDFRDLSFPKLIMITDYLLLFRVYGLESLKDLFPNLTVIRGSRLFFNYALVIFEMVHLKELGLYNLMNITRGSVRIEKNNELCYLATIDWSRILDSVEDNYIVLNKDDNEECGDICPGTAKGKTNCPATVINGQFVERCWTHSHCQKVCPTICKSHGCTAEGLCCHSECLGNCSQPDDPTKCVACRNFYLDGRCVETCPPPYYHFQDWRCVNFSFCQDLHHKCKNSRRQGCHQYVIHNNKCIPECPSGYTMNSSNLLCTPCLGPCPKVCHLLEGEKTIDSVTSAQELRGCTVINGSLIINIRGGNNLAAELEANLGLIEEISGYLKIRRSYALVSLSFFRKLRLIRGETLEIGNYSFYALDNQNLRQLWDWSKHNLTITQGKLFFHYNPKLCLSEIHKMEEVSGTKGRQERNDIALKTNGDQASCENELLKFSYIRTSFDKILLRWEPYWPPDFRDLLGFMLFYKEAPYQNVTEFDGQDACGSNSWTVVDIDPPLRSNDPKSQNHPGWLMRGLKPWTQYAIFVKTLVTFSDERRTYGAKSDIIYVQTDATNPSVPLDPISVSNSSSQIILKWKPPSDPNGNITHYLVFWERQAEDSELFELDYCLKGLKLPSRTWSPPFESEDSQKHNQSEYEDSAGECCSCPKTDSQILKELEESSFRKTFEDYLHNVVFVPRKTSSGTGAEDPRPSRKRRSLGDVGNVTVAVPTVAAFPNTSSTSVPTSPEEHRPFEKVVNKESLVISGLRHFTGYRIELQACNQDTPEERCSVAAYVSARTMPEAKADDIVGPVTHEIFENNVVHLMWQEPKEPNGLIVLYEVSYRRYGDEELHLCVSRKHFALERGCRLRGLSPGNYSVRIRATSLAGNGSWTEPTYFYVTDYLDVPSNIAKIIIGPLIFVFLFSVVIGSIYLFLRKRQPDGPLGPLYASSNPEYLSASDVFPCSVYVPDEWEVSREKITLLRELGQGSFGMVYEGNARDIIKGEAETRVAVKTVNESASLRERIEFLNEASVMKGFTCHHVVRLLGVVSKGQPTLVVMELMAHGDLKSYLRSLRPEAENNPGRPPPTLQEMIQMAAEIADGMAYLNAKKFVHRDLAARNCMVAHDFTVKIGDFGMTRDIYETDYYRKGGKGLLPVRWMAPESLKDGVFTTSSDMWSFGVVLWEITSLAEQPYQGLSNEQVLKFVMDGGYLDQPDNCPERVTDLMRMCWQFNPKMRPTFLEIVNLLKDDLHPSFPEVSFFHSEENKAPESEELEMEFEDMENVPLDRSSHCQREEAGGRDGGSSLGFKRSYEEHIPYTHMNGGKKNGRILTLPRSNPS

COCCN1CCN(c2ccc(Nc3nccc(-c4c(-c5cccc(C(=O)Nc6c(F)cccc6F)c5)nc5ccccn45)n3)c(OC)c2)CC1 [Example 240, N-(2,6-difluorophenyl)-3-(3-{2-[(2-(methyloxy)-4-{4-[2-(methyloxy)ethyl]-1-piperazinyl}phenyl)amino]-4-pyrimidinyl}imidazo[1,2-a]pyridin-2-yl)benzamide]
IC50 [1]: < 100 nM
IC50 (COLO205 (colon)): 250 to 1000 nM
IC50 [2]: < 100 nM
IC50 [3]: 250 to 1000 nM

CCOc1ccc(-c2nc3ccccn3c2-c2ccnc(Nc3cc(CC)c(N4CCN(CCS(C)(=O)=O)CC4)cc3OC)n2)cc1C(=O)Nc1c(F)cccc1F [Example 235, N-(2,6-difluorophenyl)-5-(3-{2-[(5-ethyl-2-(methyloxy)-4-{4-[2-(methylsulfonyl)ethyl]-1-piperazinyl}phenyl)amino]-4-pyrimidinyl}imidazo[1,2-a]pyridin-2-yl)-2-(ethyloxy)benzamide]
IC50 [1]: < 100 nM
IC50 (COLO205 (colon)): < 250 nM
IC50 [2]: < 100 nM
IC50 [3]: < 250 nM

COc1cc(N2CCC(N3CCCCC3)CC2)ccc1Nc1nccc(-c2c(-c3ccc(OC)c(C(=O)Nc4c(F)cccc4F)c3)nc3cc(F)ccn23)n1 [Example 198, 5-[3-(2-{[4-(1,4′-bipiperidin-1′-yl)-2-(methyloxy)phenyl]amino}-4-pyrimidinyl)-7-fluoroimidazo[1,2-a]pyridin-2-yl]-N-(2,6-difluorophenyl)-2-(methyloxy)benzamide]
IC50 [1]: < 100 nM
IC50 (COLO205 (colon)): 250 to 1000 nM
IC50 [2]: < 100 nM
IC50 [3]: < 250 nM

COc1cc(N2CCC(N3CCN(S(C)(=O)=O)CC3)CC2)ccc1Nc1nccc(-c2c(-c3ccc(OC)c(C(=O)Nc4c(F)cccc4F)c3)nc3cc(F)ccn23)n1 [Example 199, N-(2,6-difluorophenyl)-5-(7-fluoro-3-{2-[(2-(methyloxy)-4-{4-[4-(methylsulfonyl)-1-piperazinyl]-1-piperidinyl}phenyl)amino]-4-pyrimidinyl}imidazo[1,2-a]pyridin-2-yl)-2-(methyloxy)benzamide]
IC50 [1]: < 100 nM
IC50 (COLO205 (colon)): 250 to 1000 nM
IC50 [2]: < 100 nM
IC50 [3]: < 250 nM

CCOc1cc(N2CCC(CCS(C)(=O)=O)CC2)c(C)cc1Nc1nccc(-c2c(-c3cccc(C(=O)Nc4c(F)cccc4F)c3)nc3ccccn23)n1 [Example 221, N-(2,6-difluorophenyl)-3-(3-{2-[(2-(ethyloxy)-5-methyl-4-{4-[2-(methylsulfonyl)ethyl]-1-piperidinyl}phenyl)amino]-4-pyrimidinyl}imidazo[1,2-a]pyridin-2-yl)benzamide]
IC50 [1]: < 100 nM
IC50 (COLO205 (colon)): 250 to 1000 nM
IC50 [2]: < 100 nM
IC50 [3]: < 250 nM

CCOc1cc(N2CCC(N3CCN(CCC(F)(F)F)CC3)CC2)ccc1Nc1nccc(-c2c(-c3cccc(C(=O)Nc4c(F)cccc4F)c3)nc3ccccn23)n1 [Example 118, N-(2,6-difluorophenyl)-3-(3-{2-[(2-(ethyloxy)-4-{4-[4-(3,3,3-trifluoropropyl)-1-piperazinyl]-1-piperidinyl}phenyl)amino]-4-pyrimidinyl}imidazo[1,2-a]pyridin-2-yl)benzamide]
IC50 [1]: 100 to 500 nM
IC50 (COLO205 (colon)): 250 to 1000 nM
IC50 [2]: 100 to 500 nM
IC50 [3]: 250 to 1000 nM

COc1cc(N2CCN(C(C)C)CC2)ccc1Nc1nccc(-c2c(-c3ccc(OC)c(C(=O)Nc4c(F)cccc4F)c3)nc3ccccn23)n1 [Example 176, N-(2,6-difluorophenyl)-5-[3-(2-{[4-[4-(1-methylethyl)-1-piperazinyl]-2-(methyloxy)phenyl]-amino}-4-pyrimidinyl)imidazo[1,2-a]pyridin-2-yl]-2-(methyloxy)benzamide]
IC50 [1]: < 100 nM
IC50 (COLO205 (colon)): 250 to 1000 nM
IC50 [2]: < 100 nM
IC50 [3]: < 250 nM

COc1cc(N2CCC(N3CCN(CCF)CC3)CC2)ccc1Nc1nccc(-c2c(-c3cccc(C(=O)Nc4c(F)cccc4F)c3)nc3c(C)cccn23)n1 [Example 60, N-(2,6-difluorophenyl)-3-[3-(2-{[4-{4-[4-(2-fluoroethyl)-1-piperazinyl]-1-piperidinyl}-2-(methyloxy)phenyl]amino}-4-pyrimidinyl)-8-methylimidazo[1,2-a]pyridin-2-yl]benzamide]
IC50 [1]: < 100 nM
IC50 (COLO205 (colon)): 250 to 1000 nM
IC50 [2]: < 100 nM
IC50 [3]: 250 to 1000 nM

CCOc1cc(N2CCC(N3CCN(CC(F)F)CC3)CC2)ccc1Nc1nccc(-c2c(-c3cccc(C(=O)Nc4c(F)cccc4F)c3)nc3ccccn23)n1 [Example 117, 3-[3-(2-{[4-{4-[4-(2,2-difluoroethyl)-1-piperazinyl]-1-piperidinyl}-2-(ethyloxy)phenyl]-amino}-4-pyrimidinyl)imidazo[1,2-a]pyridin-2-yl]-N-(2,6-difluorophenyl)benzamide]
IC50 [1]: < 100 nM
IC50 (COLO205 (colon)): > 1000 nM
IC50 [2]: < 100 nM
IC50 [3]: 250 to 1000 nM

CCOc1ccc(-c2nc3ccccn3c2-c2ccnc(Nc3ccc(N4CCC(N5CCN(S(C)(=O)=O)CC5)CC4)cc3OC)n2)cc1C(=O)Nc1c(F)cccc1F [Example 228, N-(2,6-difluorophenyl)-2-(ethyloxy)-5-(3-{2-[(2-(methyloxy)-4-{4-[4-(methylsulfonyl)-1-piperazinyl]-1-piperidinyl}phenyl)amino]-4-pyrimidinyl}imidazo[1,2-a]pyridin-2-yl)benzamide]
IC50 [1]: < 100 nM
IC50 (COLO205 (colon)): < 250 nM
IC50 [2]: < 100 nM
IC50 [3]: < 250 nM

COc1cc(N2CCN(CCS(C)(=O)=O)[C@@H](C(C)C)C2)ccc1Nc1nccc(-c2c(-c3ccc(OC)c(C(=O)Nc4c(F)cccc4F)c3)nc3ccccn23)n1 [Example 250, N-(2,6-difluorophenyl)-5-[3-(2-{[4-{(3S)-3-(1-methylethyl)-4-[2-(methylsulfonyl)ethyl]-1-piperazinyl}-2-(methyloxy)phenyl]amino}-4-pyrimidinyl)imidazo[1,2-a]pyridin-2-yl]-2-(methyloxy)benzamide]
IC50 [1]: < 100 nM
IC50 (COLO205 (colon)): 250 to 1000 nM
IC50 [2]: < 100 nM
IC50 [3]: < 250 nM

CCOc1ccc(-c2nc3ccccn3c2-c2ccnc(Nc3cc(C)c(C4CCN(CCS(C)(=O)=O)CC4)cc3OC)n2)cc1C(=O)Nc1c(F)cccc1F [Example 164, N-(2,6-difluorophenyl)-2-(ethyloxy)-5-(3-{2-[(5-methyl-2-(methyloxy)-4-{1-[2-(methylsulfonyl)ethyl]-4-piperidinyl}phenyl)amino]-4-pyrimidinyl}imidazo[1,2-a]pyridin-2-yl)benzamide]
IC50 [1]: < 100 nM
IC50 (COLO205 (colon)): < 250 nM
IC50 [2]: < 100 nM
IC50 [3]: < 250 nM

COc1cc(N2CCN(S(C)(=O)=O)CC2)ccc1Nc1nccc(-c2c(-c3ccc(OC)c(C(=O)Nc4c(F)cccc4F)c3)nc3ccccn23)n1 [Example 233, N-(2,6-difluorophenyl)-2-(methyloxy)-5-{3-[2-({2-(methyloxy)-4-[4-(methylsulfonyl)-1-piperazinyl]phenyl}amino)-4-pyrimidinyl]imidazo[1,2-a]pyridin-2-yl}benzamide]
IC50 [1]: < 100 nM
IC50 (COLO205 (colon)): 250 to 1000 nM
IC50 [2]: < 100 nM
IC50 [3]: < 250 nM

COc1cc(C2CCN(CC(C)C)CC2)ccc1Nc1nccc(-c2c(-c3cccc(C(=O)Nc4c(F)cccc4F)c3)nc3ccccn23)n1 [Example 162, N-(2,6-difluorophenyl)-3-{3-[2-({2-(methyloxy)-4-[1-(2-methylpropyl)-4-piperidinyl]phenyl}amino)-4-pyrimidinyl]imidazo[1,2-a]pyridin-2-yl}benzamide]
IC50 [1]: < 100 nM
IC50 (COLO205 (colon)): 250 to 1000 nM
IC50 [2]: < 100 nM
IC50 [3]: < 250 nM

CCOc1cc(N2CCC(N3CCN(S(C)(=O)=O)CC3)CC2)ccc1Nc1nccc(-c2c(-c3ccc(OCC)c(C(=O)Nc4c(F)cccc4F)c3)nc3ccccn23)n1 [Example 222, N-(2,6-difluorophenyl)-2-(ethyloxy)-5-(3-{2-[(2-(ethyloxy)-4-{4-[4-(methylsulfonyl)-1-piperazinyl]-1-piperidinyl}phenyl)amino]-4-pyrimidinyl}imidazo[1,2-a]pyridin-2-yl)benzamide]
IC50 [1]: < 100 nM
IC50 (COLO205 (colon)): < 250 nM
IC50 [2]: < 100 nM
IC50 [3]: < 250 nM

COc1cc(N2CCN3CCOC[C@@H]3C2)ccc1Nc1nccc(-c2c(-c3ccc(OC)c(C(=O)Nc4c(F)cccc4F)c3)nc3ccccn23)n1 [Example 124, N-(2,6-difluorophenyl)-5-[3-(2-{[4-[(9aS)-hexahydropyrazino[2,1-c][1,4]oxazin-8(1H)-yl]-2-(methyloxy)phenyl]amino}-4-pyrimidinyl)imidazo[1,2-a]pyridin-2-yl]-2-(methyloxy)-benzamide]
IC50 [1]: < 100 nM
IC50 (COLO205 (colon)): > 1000 nM
IC50 [2]: < 100 nM
IC50 [3]: < 250 nM

COc1cc(N2CCC(C3CCN(CCF)CC3)CC2)ccc1Nc1nccc(-c2c(-c3cccc(C(=O)Nc4c(F)cccc4F)c3)nc3ccccn23)n1 [Example 95, N-(2,6-difluorophenyl)-3-[3-(2-{[4-[1′-(2-fluoroethyl)-4,4′-bipiperidin-1-yl]-2-(methyloxy)phenyl]amino}-4-pyrimidinyl)imidazo[1,2-a]pyridin-2-yl]benzamide]
IC50 [1]: < 100 nM
IC50 (COLO205 (colon)): > 1000 nM
IC50 [2]: 100 to 500 nM
IC50 [3]: 250 to 1000 nM

COc1cc(C2CCN(C3CCN(CCS(C)(=O)=O)CC3)CC2)ccc1Nc1nccc(-c2c(-c3cccc(C(=O)Nc4c(F)cccc4F)c3)nc3ccccn23)n1 [Example 99, N-(2,6-difluorophenyl)-3-(3-{2-[(2-(methyloxy)-4-{1′-[2-(methylsulfonyl)ethyl]-1,4′-bipiperidin-4-yl}phenyl)amino]-4-pyrimidinyl}imidazo[1,2-a]pyridin-2-yl)benzamide]
IC50 [1]: < 100 nM
IC50 (COLO205 (colon)): < 250 nM
IC50 [2]: < 100 nM
IC50 [3]: < 250 nM
